pEC50: −log10 of the molar value. Converted amounts (≈) assume the structure as drawn. Read-outs that look alike come from different tables or passages of the source. Positions of bridges follow the written chain, without caps; N, C: chain ends. Non-standard residues stand in square brackets, D forms with d. Residues, ends and D or L forms follow the SMILES beside them. Lys(N3) = [N-]=[N+]=NCCCC[C@H](N)C(=O)O; R8 = C=CCCCCCC[C@@](C)(N)C(=O)O; Cba = N[C@@H](CC1CCC1)C(=O)O; S5 = C=CCCC[C@](C)(N)C(=O)O; βAla = NCCC(=O)O
Key:
[1] = Lactate dehydrogenase (LDH) release assay; format: cell-based
Procedure, shortened: (§1)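 HCT116 cells stably carrying a p53-responsive β-lactamase reporter, seeded at 8000 cells/well, exposed to compound with 0.5% final DMSO. LDH release read with the CytoTox-ONE membrane integrity kit. Values are geometric means of at least three biological replicates.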

[2] = system: HCT116 cells; experiment: Lactate dehydrogenase (LDH) release assay; format: cell-based
Procedure, shortened: as §1

[3] = system: Ca Ski cell line; conditions: 72 h
Procedure, shortened: (§2)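 Compound dilution series (10 points, 3-fold, 10 mM top stock in DMSO) tested on overnight-plated Ca Ski cells in RPMI1640/10% FBS and on blasticidin-selected p53RE-bla HCT-116 cells in McCoy's 5A; read-out was CellTiter-Glo 2.0 luminescence after room-temperature equilibration.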

[4] = system: CellSensor p53RE-bla HCT-116 Cell Line; conditions: 72 h
Procedure, shortened: as §2

[5] = in vitro; conditions: Nanoclick permeability assay EC50
Procedure, shortened: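 Azido-peptide permeability was read as loss of NanoBRET signal (donor 450 nm, acceptor 610 nm) after adding NanoBret618-azide at 10 μM final.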

[6] = physchem
[7] = Experimental LogD (partition coefficient); conditions: not stated, Partition Coeff LogD
[8] = Solubility assay (kinetic solubility, PBS pH 7); format: physicochemical; conditions: for solubility kinetic: pH 7, aqueous buffer, kinetic from dmso stock, read-out: Solubility
Procedure, shortened: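 Next, measure peak areas of sample and standard. Finally, multiply their ratio by the standard concentration to obtain solubility (µM).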

[9] = physchem; remark: listed apart in the source

SMILES | pEC50 ([1]; LDH: Cytotoxicity assay: EC50) | LDH: Cytotoxicity assay: % Effect [2] | pEC50 [3] | pEC50 [4] | cell entry EC50 [5] | EPSA [6] | logD [7] | pEC50 ([1]; LDH: Cytotoxicity assay EC50) | solubility kinetic ([8]; pH 7, PBS) | EPSA [9] | pEC50 ([1]; LDH Cytotoxicity assay EC50) | Solubility [8] | Solubility ([8]; pH 7, PBS)
CC(=O)N[C@@H](CCCCN=[N+]=[N-])C(=O)NCCC(=O)N[C@@H](CO)C(=O)N[C@H](C(=O)N[C@@H](Cc1ccccc1)C(=O)N[C@]1(C)CCCCCCC=CCCC[C@@](C)(C(=O)N[C@@H](CO)C(=O)N[C@@H](C)C(=O)N[C@@H](C)C(N)=O)NC(=O)[C@H](CC2CCC2)NC(=O)[C@H](CCC(N)=O)NC(=O)[C@H](CO)NC(=O)[C@H](Cc2c[nH]c3ccccc23)NC(=O)[C@H](Cc2ccc(O)cc2)NC(=O)[C@H](CO)NC1=O)[C@@H](C)O [MP-5493] (Ac-[Lys(N3)][βAla]STF[R8]SYWSQ[Cba][S5]SAA-NH2; staple 6-13) | < 4.30 | 6.777% | < 4.30 | 5.44 | 0.0294 µM | 204 A^2 | 2.69 | – | – | – | – | – | –
CC(=O)N[C@@H](CCCCN=[N+]=[N-])C(=O)NCCC(=O)N[C@H](C(=O)N[C@H](C(=O)N[C@@H](Cc1ccccc1)C(=O)N[C@]1(C)CCCCCCC=CCCC[C@@](C)(C(=O)N[C@@H](CO)C(=O)N[C@@H](C)C(=O)N[C@@H](C)C(N)=O)NC(=O)[C@H](CC2CCC2)NC(=O)[C@H](CCC(N)=O)NC(=O)[C@H]([C@@H](C)O)NC(=O)[C@H](Cc2c[nH]c3ccccc23)NC(=O)[C@H](Cc2ccc(O)cc2)NC(=O)[C@H]([C@@H](C)O)NC1=O)[C@@H](C)O)[C@@H](C)O [MP-5494] (Ac-[Lys(N3)][βAla]TTF[R8]TYWTQ[Cba][S5]SAA-NH2; staple 6-13) | < 4.30 | 2.763% | < 4.30 | 6.17 | 0.457 µM | 199 A^2 | 2.94 | – | – | – | – | – | –
CC(=O)N[C@@H](CCCCN=[N+]=[N-])C(=O)NCCC(=O)N[C@@H](CCCNC(=N)N)C(=O)N[C@H](C(=O)N[C@@H](Cc1ccccc1)C(=O)N[C@]1(C)CCCCCCC=CCCC[C@@](C)(C(=O)N[C@@H](CO)C(=O)N[C@@H](C)C(=O)N[C@@H](C)C(N)=O)NC(=O)[C@H](CC2CCC2)NC(=O)[C@H](CCC(N)=O)NC(=O)[C@H](C)NC(=O)[C@H](Cc2c[nH]c3ccccc23)NC(=O)[C@H](Cc2ccc(O)cc2)NC(=O)[C@H](CCC(=O)O)NC1=O)[C@@H](C)O [MP-552] (Ac-[Lys(N3)][βAla]RTF[R8]EYWAQ[Cba][S5]SAA-NH2; staple 6-13) | – | – | 4.40 | 5.36 | 0.0896 µM | – | 2.81 | < 4.30 | 2 µM (≈ 4.03 µg/mL) | 230 A^2 | – | – | –
CC(=O)N[C@@H](CCCCN=[N+]=[N-])C(=O)NCCC(=O)N[C@@H](CC(C)C)C(=O)N[C@@H](CCC(=O)O)C(=O)N[C@@H](Cc1ccccc1)C(=O)N[C@]1(C)CCCCCCC=CCCC[C@@](C)(C(=O)N[C@@H](CO)C(=O)N[C@@H](C)C(=O)N[C@@H](C)C(N)=O)NC(=O)[C@H](CC2CCC2)NC(=O)[C@H](CCC(N)=O)NC(=O)[C@H](C)NC(=O)[C@H](Cc2c[nH]c3ccccc23)NC(=O)[C@H](Cc2ccc(O)cc2)NC(=O)[C@H](CCC(=O)O)NC1=O [MP-179] | – | – | < 4.30 | 4.87 | 0.173 µM | – | 2.5 | < 4.30 | 102 µM (≈ 205 µg/mL) | 243 A^2 | – | – | –
CC(=O)N[C@@H](CCCCN=[N+]=[N-])C(=O)NCCC(=O)N[C@@H](Cc1c[nH]cn1)C(=O)N[C@H](C(=O)N[C@@H](Cc1ccccc1)C(=O)N[C@]1(C)CCCCCCC=CCCC[C@@](C)(C(=O)N[C@@H](CO)C(=O)N[C@@H](C)C(=O)N[C@@H](C)C(N)=O)NC(=O)[C@H](CC2CCC2)NC(=O)[C@H](CCC(N)=O)NC(=O)[C@H](C)NC(=O)[C@H](Cc2c[nH]c3ccccc23)NC(=O)[C@H](Cc2ccc(O)cc2)NC(=O)[C@H](CCC(=O)O)NC1=O)[C@@H](C)O [MP-173, AZIDE-ATSP-7041 (L1H)] (Ac-[Lys(N3)][βAla]HTF[R8]EYWAQ[Cba][S5]SAA-NH2; staple 6-13) | – | – | 4.45 | 5.29 | 0.0406 µM | – | 2.73 | < 4.30 | 5 µM (≈ 9.97 µg/mL) | 232 A^2 | – | – | –
CC[C@H](C)[C@H](NC(=O)CCNC(=O)[C@H](CCCCN=[N+]=[N-])NC(C)=O)C(=O)N[C@H](C(=O)N[C@@H](Cc1ccccc1)C(=O)N[C@]1(C)CCCCCCC=CCCC[C@@](C)(C(=O)N[C@@H](CO)C(=O)N[C@@H](C)C(=O)N[C@@H](C)C(N)=O)NC(=O)[C@H](CC2CCC2)NC(=O)[C@H](CCC(N)=O)NC(=O)[C@H]([C@@H](C)CC)NC(=O)[C@H](Cc2c[nH]c3ccccc23)NC(=O)[C@H](Cc2ccc(O)cc2)NC(=O)[C@H]([C@@H](C)CC)NC1=O)[C@@H](C)O [MP-491] (Ac-[Lys(N3)][βAla]ITF[R8]IYWIQ[Cba][S5]SAA-NH2; staple 6-13) | < 4.30 | -1.101% | < 4.30 | 5.88 | 0.237 µM | 196 A^2 | 4.61 | – | – | – | – | – | –
CC(=O)N[C@@H](CCCCN=[N+]=[N-])C(=O)NCCC(=O)N[C@H](C(=O)N[C@H](C(=O)N[C@@H](Cc1ccccc1)C(=O)N[C@]1(C)CCCCCCC=CCCC[C@@](C)(C(=O)N[C@@H](CO)C(=O)N[C@@H](C)C(=O)N[C@@H](C)C(N)=O)NC(=O)[C@H](CC2CCC2)NC(=O)[C@H](CCC(N)=O)NC(=O)[C@H](C(C)C)NC(=O)[C@H](Cc2c[nH]c3ccccc23)NC(=O)[C@H](Cc2ccc(O)cc2)NC(=O)[C@H](C(C)C)NC1=O)[C@@H](C)O)C(C)C [MP-490] (Ac-[Lys(N3)][βAla]VTF[R8]VYWVQ[Cba][S5]SAA-NH2; staple 6-13) | < 4.30 | – | < 4.30 | 6.09 | 1.37 µM | 194 A^2 | 4 | – | 3 µM (≈ 5.86 µg/mL) | – | – | – | –
CC(=O)N[C@@H](CCCCN=[N+]=[N-])C(=O)NCCC(=O)N[C@@H](CCC(=O)O)C(=O)N[C@H](C(=O)N[C@@H](Cc1ccccc1)C(=O)N[C@]1(C)CCCCCCC=CCCC[C@@](C)(C(=O)N[C@@H](CO)C(=O)N[C@@H](C)C(=O)N[C@@H](C)C(N)=O)NC(=O)[C@H](CC2CCC2)NC(=O)[C@H](CCC(N)=O)NC(=O)[C@H](C)NC(=O)[C@H](Cc2c[nH]c3ccccc23)NC(=O)[C@H](Cc2ccc(O)cc2)NC(=O)[C@H](CCC(=O)O)NC1=O)[C@@H](C)O [MP-178] | – | – | < 4.30 | 5.56 | 0.292 µM | – | 2.47 | < 4.30 | 169 µM (≈ 336 µg/mL) | 254 A^2 | – | – | –
CC(=O)N[C@@H](CCCCN=[N+]=[N-])C(=O)N[C@@H](CCCCN)C(=O)N[C@@H](CCCCN)C(=O)NCCC(=O)N[C@@H](C)C(=O)N[C@@H](C)C(=O)N[C@@H](Cc1ccccc1)C(=O)N[C@]1(C)CCCCCCC=CCCC[C@@](C)(C(=O)N[C@@H](C)C(=O)N[C@@H](C)C(=O)N[C@@H](C)C(N)=O)NC(=O)[C@H](CC2CCC2)NC(=O)[C@H](C)NC(=O)[C@H](C)NC(=O)[C@H](Cc2c[nH]c3ccccc23)NC(=O)[C@H](Cc2ccc(O)cc2)NC(=O)[C@H](C)NC1=O [MP-8967] (Ac-[Lys(N3)]KK[βAla]AAF[R8]AYWAA[Cba][S5]AAA-NH2; staple 8-15) | – | – | 4.87 | 4.92 | 0.575 µM | – | 2.75 | 4.78 | – | 223 A^2 | 4.77 | P.B. | Poorly Behaved
CC(=O)N[C@@H](CCCCN=[N+]=[N-])C(=O)NCCC(=O)N[C@@H](Cc1ccccc1)C(=O)N[C@H](C(=O)N[C@@H](Cc1ccccc1)C(=O)N[C@]1(C)CCCCCCC=CCCC[C@@](C)(C(=O)N[C@@H](CO)C(=O)N[C@@H](C)C(=O)N[C@@H](C)C(N)=O)NC(=O)[C@H](CC2CCC2)NC(=O)[C@H](CCC(N)=O)NC(=O)[C@H](Cc2ccccc2)NC(=O)[C@H](Cc2c[nH]c3ccccc23)NC(=O)[C@H](Cc2ccc(O)cc2)NC(=O)[C@H](Cc2ccccc2)NC1=O)[C@@H](C)O [MP-492] (Ac-[Lys(N3)][βAla]FTF[R8]FYWFQ[Cba][S5]SAA-NH2; staple 6-13) | < 4.30 | – | < 4.30 | 5.60 | 0.16 µM | 211 A^2 | 4.21 | – | 3 µM (≈ 6.3 µg/mL) | – | – | – | –
CC(=O)N[C@@H](CCCCN=[N+]=[N-])C(=O)NCCC(=O)N[C@@H](Cc1ccc(O)cc1)C(=O)N[C@H](C(=O)N[C@@H](Cc1ccccc1)C(=O)N[C@]1(C)CCCCCCC=CCCC[C@@](C)(C(=O)N[C@@H](CO)C(=O)N[C@@H](C)C(=O)N[C@@H](C)C(N)=O)NC(=O)[C@H](CC2CCC2)NC(=O)[C@H](CCC(N)=O)NC(=O)[C@H](Cc2ccc(O)cc2)NC(=O)[C@H](Cc2c[nH]c3ccccc23)NC(=O)[C@H](Cc2ccc(O)cc2)NC(=O)[C@H](Cc2ccc(O)cc2)NC1=O)[C@@H](C)O [MP-694] (Ac-[Lys(N3)][βAla]YTF[R8]YYWYQ[Cba][S5]SAA-NH2; staple 6-13) | < 4.30 | – | < 4.30 | 5.52 | 0.453 µM | 227 A^2 | 3.22 | – | 9 µM (≈ 19.3 µg/mL) | – | – | – | –

Source: article PMC10786919, “Design-rules for stapled peptides with in vivo activity and their application to Mdm2/X antagonists” (Nature Communications, 2024)
